In brackets after ≈: the same amount, converted by molar mass. Several values for one entry are separate records, joined by “and”; a condition that tells them apart may be missing. Identical values can stand only once.
Columns and labels:
[1] = test system: Colinus virginianus; settings: acute, oral, mortality; for LC50: diet
[2] = test system: Lepomis macrochirus; settings: acute; duration: 96 hours; mortality
[3] = test system: Folsomia candida; settings: chronic/long-term; duration: 28 days
[4] = test system: Apis mellifera; settings: acute; dermal; mortality
[5] = test system: Bibionidae; settings: chronic/long-term; duration: 28 days
[6] = test system: Phasianus sp.; settings: acute, oral, unspecified, mortality
[7] = test system: Anas platyrhynchos; settings: oral, mortality; for LD50: acute, unspecified; for LC50: short-term, feed
[8] = test system: Hypoaspis aculeifer; settings: chronic/long-term; duration: 28 days
[9] = test system: Ceriodaphnia dubia; settings: chronic/long-term; duration: 7 days; reproduction
[10] = test system: Coturnix coturnix; settings: acute, oral, mortality
[11] = test system: Tagia sp.
[12] = test system: Rattus norvegicus; settings: mortality
[13] = test system: Anas platyrhynchos; test: LC10; higher = less toxic; settings: short-term; duration: 14 days; oral; feed; mortality

Compound: CNC(=O)Oc1cccc2c1OC(C)(C)C2 [Carbofuran]
- LC50 ([1]; duration: 5 days): 114 mg/kg-day
- LC50 ([1]; duration: 7 days): 20.8 mg/kg-day
- LC50 ([1]; duration: 14 days): 15.8 mg/kg-day
- LD50 ([1]; M/F): 8 mg/kg-day
- LC50 [2]: 0.18 mg/L (≈ 0.814 µM)
- NOEC [3]: 0.21 mg/kg
- LD50 [4]: 0.0357 µg/piece
- NOEC [5]: 0.0032 mg/L
- LD50 ([6]; F): 6.2 mg/kg-day
- LD50 ([6]; M): 4 mg/kg-day
- LD50 ([7]; F): 0.86 mg/kg-day
- LD50 [7]: 0.76 mg/kg-day
- LC50 ([7]; duration: 5 days): 10 mg/kg-day and 17 mg/kg-day
- LC50 ([7]; duration: 14 days): 1.6 mg/kg-day
- NOEC [8]: 10.4 mg/kg
- NOEC [9]: 0.00016 mg/L
- LD50 ([10]; F): 3.5 mg/kg-day
- LD50 ([10]; M): 4.9 mg/kg-day
- LC50 ([11]; acute, duration: 14 days, mortality): > 50 mg/kg
- NOEC ([11]; chronic/long-term, duration: 56 days): < 0.84 mg/kg
- LD50 ([12]; acute, oral): < 5.6 mg/kg-day
- NOAEL ([12]; chronic): 0.1 mg/kg-day
- LC10 [13]: 0.64 mg/kg-day

Reference: EPA's ToxValDB 9.5 (doi:10.2903/j.efsa.2009.310r)
